In patent publication US9598466B2, “Glycopeptide constructs and uses thereof” (Sloan-Kettering Institute for Cancer Research, priority 2008, dated 2017):

Assays:
human HLA-DR = details: literature (Southwood et al. 1998); cited from earlier work
[1] = ELISA of sera from vaccinated mice for antibodies against Gb3; assay type: in vivo, mice (C57BL/6J); details: mice vaccinated subcutaneously, unconjugated antigen plus an adjuvant such as QS-21; sera tested against Gb3-ceramide
Procedure: Groups of five mice were vaccinated subcutaneously with Gb3-MUC5AC or Gb3-MUC5AC-KLH conjugate plus adjuvant with appropriate controls. Sera were tested against Gb3-ceramide by ELISA.
Groups of five mice (C57BL/6J, female, 6-8 weeks old) were vaccinated three times with GB3-ceramide conjugate (5 μg equivalent of GB3), MUC5Ac peptide (5 μg equivalent of MUC5Ac), GB3-MUC5Ac-SH conjugate (5 μg equivalent of GB3-MUC5AC), GB3-MUC5Ac-KLH conjugate (1, 5 and 10 μg equivalent of GB3-MUC5Ac), Globo H-KLH conjugate (5 μg equivalent of GloboH) and KLH protein alone (5 μg equivalent of KLH) in 100 μL phosphate buffered saline (PBS) either with an adjuvant (20 μg) or without adjuvant. Vaccines were administered subcutaneously to each mouse on weeks 1, 2, 3, and 7. Mice were bled 7 days after the third vaccination and forth vaccination.
The presence of antibodies was tested by an enzyme-linked immunosorbent assay (ELISA). ELISAs were performed to determine antibody response against GB3, Globo H and KLH. The ELISA plates were coated with either GB3 antigen or Globo H at 0.2 μg/well and 0.1 μg/well respectively in ethanol or KLH at 0.1 μg/well in carbonate buffer (pH 10). The GB3-coated and Globo H coated plates were kept overnight at room temperature to evaporate ethanol, and KLH coated plates were incubated at 4° C. overnight. […] Absorbance was measured at 405 nm.

| Substance | binding capacity to human HLA-DR alleles (human HLA-DR) | number of different alleles of human HLA-DR bound (human HLA-DR) | antibodies against Gb3 by ELISA [1] |
| --- | --- | --- | --- |
| GLAYKFVVPGAATPY | prevalently in the nanomolar range | up to 9 | – |
| globotriaosyl ceramide [Gb3-ceramide] | – | – | failed to produce antibodies against Gb3 |
